Assays:
pCRY-PHR = biological target: T1, pCRY-PHR (Chlamydomonas reinhardtii, UniProt Q42696); assay: light-induced in-cell ATR-FTIR difference spectroscopy (ICIRD); assay type: cell-based; settings: living HEK cells, 37 °C, blue light; noncovalent; oxidized flavin to flavin neutral radical
T1 construct: gene CPH1; photolyase homology region (PHR) without CCT, mCherry fused as reporter; stably transfected HEK cells, also E. coli cells

[1] = biological target: T2, LOV (LOV sensor of aureochrome1a) (Phaeodactylum tricornutum, UniProt A0A140UHJ0, I28V, form not given); assay: as above; assay type: cell-based; settings: living HEK cells, 37 °C, blue light; covalent photoadduct with Cys287 on illumination, noncovalent in dark; also in vitro and E. coli cells
T2 construct: isolated LOV sensor domain without bZIP effector; transiently transfected HEK cells, also E. coli cells and in vitro
T2 sequence (A0A140UHJ0 entry or part of it I28V, form open): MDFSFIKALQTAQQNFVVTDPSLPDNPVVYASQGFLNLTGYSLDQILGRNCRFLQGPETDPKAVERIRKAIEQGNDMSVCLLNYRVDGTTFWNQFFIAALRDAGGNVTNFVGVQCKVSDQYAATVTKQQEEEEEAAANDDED

[2] = biological target: T3, LOV (LOV sensor of aureochrome1a) (Phaeodactylum tricornutum, UniProt A0A140UHJ0, I28V); assay: light-induced FTIR difference spectroscopy in vitro; assay type: binding; settings: wild type compared with I264V; covalent photoadduct with Cys287 on illumination
T3 construct: isolated LOV sensor domain without bZIP effector; transiently transfected HEK cells, also E. coli cells and in vitro
T3 sequence (A0A140UHJ0 entry or part of it I28V): as the sequence (A0A140UHJ0 entry or part of it I28V, form open) above

T1 sequence (Q42696 entry or part of it): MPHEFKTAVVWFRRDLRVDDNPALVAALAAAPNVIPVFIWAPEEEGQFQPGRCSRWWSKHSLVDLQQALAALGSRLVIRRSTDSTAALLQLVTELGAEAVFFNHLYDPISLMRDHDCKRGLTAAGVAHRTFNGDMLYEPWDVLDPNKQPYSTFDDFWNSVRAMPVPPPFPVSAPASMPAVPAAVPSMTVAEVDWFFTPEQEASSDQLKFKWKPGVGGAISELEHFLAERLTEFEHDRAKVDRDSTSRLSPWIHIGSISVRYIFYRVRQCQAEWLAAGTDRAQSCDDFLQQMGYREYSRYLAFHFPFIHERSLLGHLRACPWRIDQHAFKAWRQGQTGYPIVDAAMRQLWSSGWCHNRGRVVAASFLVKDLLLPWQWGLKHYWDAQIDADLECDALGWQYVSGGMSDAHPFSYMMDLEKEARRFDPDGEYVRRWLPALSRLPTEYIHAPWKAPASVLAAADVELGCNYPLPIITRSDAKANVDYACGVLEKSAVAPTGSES

| Compound | light-induced in-cell ATR-FTIR difference spectroscopy (ICIRD) (pCRY-PHR) | light-induced in-cell ATR-FTIR difference spectroscopy (ICIRD) [1] | light-induced FTIR difference spectroscopy in vitro [2] |
| --- | --- | --- | --- |
| Cc1cc2nc3c(=O)[nH]c(=O)nc-3n(C[C@H](O)[C@H](O)[C@H](O)COP(=O)(O)OP(=O)(O)OC[C@H]3O[C@@H](n4cnc5c(N)ncnc54)[C@H](O)[C@@H]3O)c2cc1C [flavin adenine dinucleotide] | photoreaction of the oxidized flavin to the flavin neutral radical in pCRY-PHR | – | – |
| Cc1cc2nc3c(=O)[nH]c(=O)nc-3n(C[C@H](O)[C@H](O)[C@H](O)COP(=O)(O)O)c2cc1C [flavin mononucleotide] | – | formation of the cysteine adduct from the oxidized flavin | without altering the mechanism (Figure S6A) |
